The source of these data is US6140338A, “Chemokine receptor antagonists” (Banyu Pharmaceutical, Co., Ltd., priority 1996, dated 2000).

One test deals with CCR3. Nature of the test: CCR3 antagonist activities (Eotaxin-induced intracellular calcium increase in human eosinophils). The class given is cell-based. The note with it: 41 nM compound 5 minutes before agonist Eotaxin (10 nM), Fura2. As to the method:
By using human eosinophil which stably express CCR3, the activity of the compounds of the present invention to intracellular calcium concentration was measured by the following method. […] of Fura2 acetoxymethyl ester (produced by Dojin Kagaku Laboratories) was added to eosinophils and incubated for 30 minutes at a temperature of 37° C. Then, the mixture was excited by irradiation with light at 340 nm and 380 nm, fluorescence at 500 nm was measured, 340/380 ratio was monitored, thereby intracellular calcium concentration was calculated.

In test [1] the target is T1, human chemokine receptor CCR1 (Homo sapiens, UniProt P32246).
T1 construct: expressed in transfected cells
T1 sequence (P32246 1-355): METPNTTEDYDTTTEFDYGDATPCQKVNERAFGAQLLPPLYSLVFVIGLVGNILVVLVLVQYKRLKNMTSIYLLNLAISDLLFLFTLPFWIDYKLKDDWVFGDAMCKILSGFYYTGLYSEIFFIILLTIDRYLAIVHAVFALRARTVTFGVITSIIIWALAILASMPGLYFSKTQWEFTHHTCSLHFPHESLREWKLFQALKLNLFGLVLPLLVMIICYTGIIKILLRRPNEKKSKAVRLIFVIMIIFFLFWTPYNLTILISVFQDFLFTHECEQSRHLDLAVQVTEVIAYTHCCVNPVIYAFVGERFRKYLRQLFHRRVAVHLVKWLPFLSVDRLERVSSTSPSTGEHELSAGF
As to the kind of experiment: Inhibitory activity against binding to the chemokine receptor CCR1 ([125I]MIP-1 alpha binding, CHO cells). The note with it: 50 pM [125I]MIP-1 alpha, 90 minutes, 37° C, pH 7.4, CHO cells expressing CCR1; read-out: 50% inhibitory concentration (IC50 value) against [125I]MIP-1 alpha binding. As to the method:
cDNAs which code human chemokine receptor CCR1 was subcloned to Hind III/Xba I part of the expression vector pRc/CMV (Invitrogen) to prepare pRc/CMV CCR1. Then, pRc/CMV CCR1 was transfected to CHO cells by using lipofectamine (GIBCO) to obtain a stable cell strain resistant against 0.5 mg/ml of G418.
The stable cell strain, 50 pM[^125 I]MIP-1 alpha (2000 Ci/mmol, manufactured by New England Nuclear) and a test compound were suspended in 0.2 ml of Krebs-Ringer/0.1% bovine serum albumin/0.1% glucose (pH 7.4), and incubated for 90 minutes at a temperature of 37° C. Then, it was subjected to filtration by means of a glass filter GF/C which was preliminarily impregnated in 1% of polyethyleneimine, and washed with 1 ml of Krebs-Ringer/0.1% bovine serum albumin/0.1% glucose (pH 7.4), whereby radio activity on the glass filter was measured. The binding affinity to the chemokine receptors CCR1 was shown as a 50% inhibitory concentration (IC50 value) of the compound of the present invention against [^125 I]MIP-1 alpha binding.

For a further test, the target named is T2, chemokine receptor CCR3 (Homo sapiens, UniProt P51677).
T2 construct: expressed in transfected cells
T2 sequence (P51677 1-355): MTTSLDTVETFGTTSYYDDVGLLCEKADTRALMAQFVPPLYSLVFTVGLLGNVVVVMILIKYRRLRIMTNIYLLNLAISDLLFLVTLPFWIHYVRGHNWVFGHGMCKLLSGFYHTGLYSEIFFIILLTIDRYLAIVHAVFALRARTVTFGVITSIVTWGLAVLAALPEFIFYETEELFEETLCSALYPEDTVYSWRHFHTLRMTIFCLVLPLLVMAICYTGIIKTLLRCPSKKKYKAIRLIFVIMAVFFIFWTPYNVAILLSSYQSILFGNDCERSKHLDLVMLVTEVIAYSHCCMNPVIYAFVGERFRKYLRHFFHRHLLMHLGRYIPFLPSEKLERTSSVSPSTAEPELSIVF
Nature of the test: Inhibitory activity against binding to the chemokine receptor CCR3 ([125I]Eotaxin binding, CHO cells). The note with it: 50 pM [125I]Eotaxin, 90 minutes, 37° C, pH 7.4, CHO cells expressing CCR3; read-out: 50% inhibitory concentration (IC50 value) against [125I]Eotaxin binding. As to the method: Further, an expression vector of a gene which codes chemokine receptor CCR3 was transfected to CHO cell by using lipofectamine to obtain a stable cell strain resistant against 0.5 mg/ml of G418. The stable cell strain, 50 pM[^125 I]Eotaxin (2000 Ci/mmol, manufactured by Amersham) and a test compound were suspended in 0.2 ml of Krebs-Ringer/0.1% bovine serum albumin/0.1% glucose (pH 7.4) and incubated for 90 minutes at a temperature of 37° C. Then, it was subjected to filtration by means of a glass filter GF/C which was preliminarily impregnated in 1% polyethyleneimine, and washed with 1 ml of Krebs-Ringer/0.1% bovine serum albumin/0.1% glucose (pH 7.4), whereby radio activity on the glass filter was measured. The binding affinity to the chemokine receptors CCR3 was shown as a 50% inhibitory concentration (IC50 value) of the compounds of the present invention against [^125 I]Eotaxin binding.

The next test relates to chemokine receptor CCR1. As to the kind of experiment: Activities to intracellular cyclic AMP concentration (CHO cells stably expressing CCR1). The class given is cell-based, human. As to the method:
By using CHO cells which stably express the chemokine receptor CCR1, the activity of the test compounds to intracellular cyclic AMP concentration had been studied.
The CHO cells was suspended in Locke's solution (pH 7.4:154 mM of sodium chloride, 5.6 mM of potassium chloride, 2 mM of calcium chloride, 1 mM of magnesium chloride, 0.1% glucose, 10 mM of Hepes and 0.3 mM of isobutylmethylxanthine), and preliminarily incubated at a temperature of 37° C. for 5 minutes, and 100 nM of hMIP-1 alpha and 0.01 mM of Forskolin were added thereto. The reaction was kept for 10 minutes and terminated by adding trichloroacetic acid. The reaction mixture was centrifuged at 15000 rpm for 5 minutes and supernatant was obtained. Trichloroacetic acid in the supernatant was removed by extraction with diethyl ether, and the supernatant was evaporated to dryness by centrifugal evaporator. The cyclic AMP concentration in the sample thus obtained was measured by cyclic AMP kit (produced by Amersham). The activity of test compounds to the cyclic AMP concentration was obtained by studying antagonism against hMIP-1 alpha by adding 0.01 mM of the test compounds 5 minutes before adding 100 nM of hMIP-1 alpha.

Where [2] appears, read: control reactions: 0.01 mM Forskolin solely, or with 100 nM hMIP-1 alpha, no test compound.

As to `CC[N+]1(CC2CCCCCCC2)CCC(NC(=O)C2c3cc(Br)ccc3Oc3ccc(Br)cc32)CC1` (single isomer, unassigned) [Example 26 (named cis for convenience), cis*-1-cyclooctylmethyl-1-ethyl-4-(2,7-dibromoxanthene-9-carboxamido)piperidinium iodide], the “inhibitory ratio (%) of increase in the concentration of intracellular calcium” value with CCR3 is reported as 51%. For the same molecule, the IC50 in test [1] is 1.9 nM; at chemokine receptor CCR3, 2.7 nM. With `C=C[C@@]1(C)CC(=O)[C@]2(O)[C@@]3(C)[C@@H](O)CCC(C)(C)[C@@H]3[C@H](O)[C@H](OC(C)=O)[C@@]2(C)O1` [Forskolin, reference compound], the cAMP concentration in the test with chemokine receptor CCR1 (setting [2]) is 67.8 +/- 8.4 pmol/10^6 cells. With `CC[N+]1(CC2=CCCCCCC2)CCC(NC(=O)C2c3cc(Cl)ccc3Oc3ccc(Cl)cc32)CC1` (stereo not drawn) [Example 62 (named cis for convenience), cis*-1-(1-cyclooctenylmethyl)-1-ethyl-4-(2,7-dichloroxanthene-9-carboxamido)piperidinium bromide], the values for the IC50 (in test [1]; on chemokine receptor CCR3) were 1.8 nM and 0.74 nM, respectively.

For `C[N+]1(CC2CCCCCCC2)CCC(NC(=O)C2c3cc(Br)ccc3Oc3ccc(Br)cc32)CC1` (stereo not drawn) [Example 22, 1-cyclooctylmethyl-1-methyl-4-(2,7-dibromoxanthene-9-carboxamido)piperidinium iodide], the IC50 in test [1] is 3.9 nM; on chemokine receptor CCR3, 13 nM. Turning to `CC[N+]1(CC2CCCCCCC2)CCC(NC(=O)C2c3ccccc3Oc3ccccc32)CC1.[I-]` (stereo not drawn) [Example 12, 1-cyclooctylmethyl-1-ethyl-4-(xanthene-9-carboxamido)piperidinium iodide], the IC50 in test [1] came out at 5.2 nM; on chemokine receptor CCR3, 40 nM. In addition, the cAMP concentration in the test with chemokine receptor CCR1 (0.01 mM Forskolin + 100 nM hMIP-1 alpha + 0.01 mM test compound added 5 minutes before hMIP-1 alpha) is 81.6 +/- 4.2 pmol/10^6 cells. Take `CC[N+]1(CC2=CCCCCCC2)CCC(NC(=O)C2c3cc(Cl)ccc3Oc3ccc(Cl)cc32)CC1` (stereo not drawn) [Example 59 (named cis for convenience), cis*-1-(1-cyclooctenylmethyl)-1-ethyl-4-(2,7-dichloroxanthene-9-carboxamido)piperidinium iodide]: the “inhibitory ratio (%) of increase in the concentration of intracellular calcium” value in the test with CCR3 is listed as 97%. Turning to `O=C(NC1CCN(CC2=CCCCCCCC2)CC1)C1c2ccccc2Oc2ccccc21` [Example 61 (named cis for convenience)], the IC50 in test [1] is 1.8 nM; on chemokine receptor CCR3, 1.7 nM.

B1: hMIP - 1 alpha: chemokine (polypeptidic leukocytic migration factor), agonist used at 100 nM (protein, UniProt P10147 24-92, looked up)
C-C motif chemokine 3: SLAADTPTACCFSYTSRQIPQNFIADYFETSSQCSKPGVIFLTKRSRQVCADPSEEWVQKYVSDLELSA
On to B1, for which, in the test on chemokine receptor CCR1 (setting [2]), the cAMP concentration is 47.7 +/- 4.2 pmol/10^6 cells.
